Laboratory results: patent US20030134842A1, “METHODS FOR THE TREATMENT OR PREVENTION OF INFLAMMATORY DISEASES CHARACTERIZED BY ABNORMAL CELL PROLIFERATION” (priority 1997, published 2003)
Where two headings read alike, the source gives them in different places.

Key:
Assay type in all cases: cell-based
[1] = tested on: ACHN; experiment: SRB antiproliferative assay ACHN; conditions: Homo sapiens; ACHN (Renal), 5% FCS/5 day incubation; read-out: Test Compound IC50
Description: (§1) The cells were passaged using Trypsin (Gibco).

[2] = tested on: HT29; experiment: SRB antiproliferative assay HT29; conditions: Homo sapiens
Description: as §1

[3] = tested on: CaSki; experiment: SRB antiproliferative assay CaSki; conditions: Homo sapiens, Ca-Ski; CaSki (Cervical), 5% FCS/5 day incubation; read-out: Test Compound IC50
Description: as §1

[4] = tested on: NIH 3T3 mouse fibroblast cells; experiment: Mitogenic assay (mitogen-induced cell proliferation); conditions: for IC50: mitogen-induced cell proliferation
[5] = tested on: MDA-MB-23; experiment: SRB antiproliferative assay MDA-MB-23
Description: as §1

[6] = tested on: HTB174; experiment: SRB antiproliferative assay HTB174; conditions: HTB174 (Lung), 5% FCS/5 day incubation; read-out: Test Compound IC50
Description: as §1

[7] = tested on: A549; experiment: SRB antiproliferative assay A549; conditions: Homo sapiens
Description: as §1

[8] = tested on: HEPG2; experiment: SRB antiproliferative assay HEPG2; conditions: Homo sapiens
Description: as §1

[9] = tested on: HCT-15; experiment: SRB antiproliferative assay HCT-15; conditions: Homo sapiens; HCT-15 (Colon), 5% FCS/5 day incubation; read-out: Test Compound IC50
Description: as §1

[10] = tested on: GM; experiment: SRB assay normal cells GM; conditions: GM (Normal human), 5% FCS/5 day incubation; read-out: Test Compound IC50
Description: as §1

[11] = tested on: MMRU; experiment: SRB antiproliferative assay MMRU; conditions: Homo sapiens
Description: as §1

[12] = tested on: 3T3; experiment: SRB assay normal cells 3T3; conditions: NIH3T3; 3T3 (Normal mouse), 5% FCS/5 day incubation; read-out: Test Compound IC50
Description: as §1

[13] = target: T1, Ca2+-activated potassium channel (Gardos channel) of erythrocytes (Homo sapiens, UniProt O15554); experiment: Gardos channel assay; conditions: for inhibition at 10 µM: 10 μM compound
T1 construct: endogenous in cells; host or cells: erythrocytes

[14] = tested on: DU-145; experiment: SRB antiproliferative assay DU-145; conditions: Homo sapiens; DU-145 (Prostate), 5% FCS/5 day incubation; read-out: Test Compound IC50
Description: as §1

[15] = tested on: U118MG; experiment: SRB antiproliferative assay U118MG; conditions: Homo sapiens, U-118-MG
Description: as §1

[16] = tested on: SK-MEL-28; experiment: SRB antiproliferative assay SK-MEL-28; conditions: Homo sapiens; SK-MEL-28 (Melanoma), 5% FCS/5 day incubation; read-out: Test Compound IC50
Description: as §1

[17] = tested on: MCF7; experiment: SRB antiproliferative assay MCF7; conditions: Homo sapiens
Description: as §1

[18] = tested on: L929; experiment: SRB assay normal cells L929; conditions: L929 (Normal mouse), 5% FCS/5 day incubation; read-out: Test Compound IC50
Description: as §1

[19] = tested on: HUVEC; experiment: SRB assay normal cells HUVEC; conditions: HUVEC (Normal human), 5% FCS/5 day incubation; read-out: Test Compound IC50
Description: as §1

[20] = tested on: SK-OV-3; experiment: SRB antiproliferative assay SK-OV-3; conditions: Homo sapiens; SK-OV-3 (Ovary), 5% FCS/5 day incubation; read-out: Test Compound IC50
Description: as §1

[21] = tested on: HeLa; experiment: SRB antiproliferative assay HeLa; conditions: Homo sapiens; HeLa (Cervical), 5% FCS/5 day incubation; read-out: Test Compound IC50
Description: as §1

[22] = HT-29, HT29 (Colon), 5% FCS/5 day incubation, read-out: Test Compound IC50
[23] = Mus musculus, NIH3T3, NIH 3T3 mouse fibroblast cells
[24] = MDA-MB-23 (Breast), 5% FCS/5 day incubation, read-out: Test Compound IC50
[25] = A549, A549 (Lung), 5% FCS/5 day incubation, read-out: Test Compound IC50
[26] = HEPG2 (Hepatocel), 5% FCS/5 day incubation, read-out: Test Compound IC50
[27] = MMRU (Melanoma), 5% FCS/5 day incubation, read-out: Test Compound IC50
[28] = U118MG (CNS), 5% FCS/5 day incubation, read-out: Test Compound IC50
[29] = MCF7 (Breast), 5% FCS/5 day incubation, read-out: Test Compound IC50
[30] = HT-29, HT29, 5% FCS/3 days, read-out: Test Compound IC50 Value in Cell Lines
[31] = A549, A549, 5% FCS/3 days, read-out: Test Compound IC50 Value in Cell Lines
[32] = HEPG2, 5% FCS/3 days, read-out: Test Compound IC50 Value in Cell Lines
[33] = MMRU, 5% FCS/3 days, read-out: Test Compound IC50 Value in Cell Lines
[34] = U118MG, 5% FCS/3 days, read-out: Test Compound IC50 Value in Cell Lines
[35] = MCF7, 5% FCS/3 days, read-out: Test Compound IC50 Value in Cell Lines
[36] = MDA-MB-23, read-out: Test Compound IC50
[37] = A549 (Lung), 5% FCS/5 day incubation, read-out: Test Compound IC50

T1 sequence (O15554 whole entry): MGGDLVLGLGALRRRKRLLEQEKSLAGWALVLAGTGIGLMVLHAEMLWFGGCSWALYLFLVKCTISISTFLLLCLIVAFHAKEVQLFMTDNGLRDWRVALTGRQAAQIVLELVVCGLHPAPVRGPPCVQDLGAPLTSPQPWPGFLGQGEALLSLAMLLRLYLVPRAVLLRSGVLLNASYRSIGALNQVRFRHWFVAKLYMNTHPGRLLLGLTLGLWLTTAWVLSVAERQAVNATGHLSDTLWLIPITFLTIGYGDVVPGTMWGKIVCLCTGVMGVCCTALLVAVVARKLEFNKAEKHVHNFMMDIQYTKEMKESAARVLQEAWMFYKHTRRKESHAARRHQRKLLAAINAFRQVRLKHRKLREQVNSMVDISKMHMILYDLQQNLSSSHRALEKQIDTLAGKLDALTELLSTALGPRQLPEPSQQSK

Row | SMILES | IC50 [1] [µM] | IC50 [2, 22] [µM] | IC50 [3] [µM] | IC50 [4, 23] [µM] | IC50 [6] [µM] | IC50 [8, 26] [µM] | IC50 [9] [µM] | IC50 [10] [µM] | IC50 [11, 27] [µM] | inhibition at 10 µM [13] [%] | IC50 [14] [µM] | IC50 [15, 28] [µM] | IC50 [16] [µM] | IC50 [17, 29] [µM] | IC50 [18] [µM] | IC50 [19] [µM] | IC50 [21] [µM] | IC50 [2, 30] [µM] | IC50 [8, 32] [µM] | IC50 [11, 33] [µM] | other results
1 | O=C(c1ccc([N+](=O)[O-])cc1)N1Cc2ccccc2C(c2ccccc2)c2ccccc21 (centres unmarked) [Compound 20] | > 1 | 0.7 | 0.9 | 1.7 | 0.7 | 0.9 | 0.9 | > 1 | 0.5 | 13.6 | > 1 | 0.9 | 0.9 | > 1 | 0.9 | > 1 | 0.6 |  |  |  | IC50 [5, 24]: > 1 µM; IC50 [7, 25]: > 1 µM; IC50 [12]: > 1 µM; IC50 [13]: > 10 µM; IC50 [20]: > 1 µM
2 | COc1ccc(C(=O)N2Cc3ccccc3C(c3ccccc3Cl)c3ccccc32)cc1 (centres unmarked) [Compound 27] | > 1 | 0.4 | 0.9 | 2.2 | 0.3 | 0.4 | 0.4 | > 1 | 0.2 | 3 | > 1 | 0.4 | 0.7 | 0.5 | > 1 | > 1 | 0.2 | < 1.25 | < 1.25 | < 1.25 | IC50 [5, 24]: > 1 µM; IC50 [7, 25]: 1.1 µM; IC50 [7, 31]: < 1.25 µM; IC50 [12]: > 1 µM; IC50 [13]: > 10 µM; IC50 [15, 34]: 1.9 µM; IC50 [17, 35]: < 1.25 µM; IC50 [20]: > 1 µM
3 | O=C(c1ccc([N+](=O)[O-])cc1)N1Cc2ccccc2C(c2ccccc2Cl)c2ccccc21 (centres unmarked) [Compound 28, N-(4′-nitrobenzoyl)-11-(2′-chlorophenyl)-5,6-dihydro-11H-dibenz[b,e]azepine] | 0.7 | 0.3 | 0.5 |  | 0.1 | 0.3 | 0.4 | 0.9 | 0.2 | 0 | 0.9 | 0.5 | 0.4 | 0.6 | 0.6 | 0.7 | 0.3 | < 1.25 | < 1.25 | < 1.25 | Mitogenic Assay Inhibition ([4]; 10 µM compound, NIH 3T3 mouse fibroblast cells): 99.0%; IC50 ([4]; NIH3T3, NIH 3T3 mouse fibroblast cells): 0.04 to 0.5 µM; IC50 [5, 36]: 0.5 µM; IC50 [7, 37]: 0.8 µM; IC50 ([7]; A549, 5% FCS/3 days, read-out: Test Compound IC50 Value in Cell Lines): 1.8 µM; IC50 [12]: > 1 µM; IC50 [15, 34]: 1.3 µM; IC50 [17, 35]: 2.1 µM; IC50 [20]: > 1 µM
4 | O=C(Nc1ccccc1)N1Cc2ccccc2C(c2ccccc2Cl)c2ccccc21 (centres unmarked) [Compound 32] |  |  |  | 1.1 |  |  |  |  |  | 0 |  |  |  |  |  |  |  | 6.3 | 6.2 | 4.9 | IC50 [7, 31]: 6.9 µM; IC50 [15, 34]: 6.8 µM; IC50 [17, 35]: 5.4 µM
5 | CNc1ccc(C(=O)N2Cc3ccccc3C(c3ccccc3Cl)c3ccccc32)cc1 (centres unmarked) [Compound 33] |  | 1.2 |  | 2.4 | 1.4 | 1.4 |  |  | 1.3 | 67.5 |  |  |  | 2.1 |  |  |  | 6.3 | 6.2 | 4.9 | IC50 [7, 25]: 3.1 µM; IC50 [7, 31]: 6.9 µM; IC50 [13]: > 10 µM; IC50 [15, 34]: 6.8 µM; IC50 [17, 35]: 5.4 µM
6 | COc1cc([C@@H]2c3cc4c(cc3[C@@H](O[C@@H]3O[C@@H]5CO[C@@H](C)O[C@H]5[C@H](O)[C@H]3O)[C@H]3COC(=O)[C@H]23)OCO4)cc(OC)c1O [VP-16, Etoposide, reference compound] | < 1.25 | < 1.25 | 1.8 |  | < 1.25 | < 1.25 | 1.3 | 1.4 | < 1.25 |  | < 1.25 | 2.2 | < 1.25 | < 1.25 | < 1.25 | < 1.25 | < 1.25 |  |  |  | IC50 ([2]; HT-29, HT29, 2% FCS/3 days, read-out: Test Compound IC50 Value in Cell Lines): 20 µM; IC50 [5, 36]: < 1.25 µM; IC50 [7, 37]: < 1.25 µM; IC50 ([7]; A549, 2% FCS/3 days, read-out: Test Compound IC50 Value in Cell Lines): 2.3 µM; IC50 ([11]; MMRU, 2% FCS/3 days, read-out: Test Compound IC50 Value in Cell Lines): < 2.5 µM; IC50 ([17]; MCF7, 2% FCS/3 days, read-out: Test Compound IC50 Value in Cell Lines): < 2.5 µM
